The record followed here is patent US4410537A, “Pharmaceutical ethers” (Burroughts Wellcome Co., priority 1979, dated 1983).

Series [1] relates to haemoglobin. Kind of series: Effect on the oxygen-dissociation curve of whole normal human blood in vitro. Particulars: for Mean p50: normal human blood, 30 mins, 37° C., control 26.0. The class given is cell-based. Here is the method: (§1) Compound (Ia) was dissolved in isotonic saline containing sodium bicarbonate 25 mM. […] The mixtures were incubated (30 mins, 37° C.) and the oxygen-dissociation curve for each then measured using a whole-blood spectrophotometer (Hem-O-Scan, Trade Name).

In series [2] the test system is haemoglobin. Kind of series: Effect on the oxygen-dissociation curve of whole rat blood in vitro. The class given is cell-based. Here is the method: as §1
Blood (6.5 ml) from an adult albino rat, exsanguinated via the abdominal aorta under ether anaesthesia, was mixed with acid-citratedextrose anticoagulant (1.5 ml). […] Both samples were incubated (30 mins, 37° C.) and the oxygen-dissociation curve of each measured as in (A).

For series [3], the system named is haemoglobin. Kind of series: Effect on the oxygen-dissociation curve of whole rat blood in vivo. Particulars: for Mean p50: 1 hour, rat. The method, then:
as §1
Female albino rats (100-120 g) were fasted for 24 hrs with water available ad lib. Compound (Ia) was dissolved in isotonic saline containing sodium bicarbonate 25 mM and administered to two rats orally (500 mg/kg) and to two rats intravenously (100 mg/kg): appropriate vehicle controls were administered simultaneously to control animals. After 1 hour all animals were exsanguinated via the abdominal aorta under chloroform anaesthesia: 2.5 ml of blood from each was mixed with disodium edetate (anticoagulant) and the oxygen-dissociation curve of each sample measured as in (A).

The test system of series [4] is haemoglobin. Kind of series: Effect on the oxygen-dissociation curve of whole homozygous human sickle-cell blood in vitro. The class given is cell-based. The method, then:
Compound (Ia) was dissolved in isotonic saline containing sodium bicarbonate 25 mM. […]
Homozygous human sickle-cell blood (4 vols) was mixed with acid-citrate-dextrose anticoagulant (1 vol) and a portion of the mixture set aside as a control.

In series [5] the test system is whole homozygous human sickle-cell blood. Kind of series: Effect on sickling in vitro of whole homozygous human sickle-cell blood. The class given is cell-based. Particulars: 3.0 mM, 60 mins, oxygen tension about 28 mm Hg; about 50% sickled at start; controls nearly 70%.
A short description of series [6]: Acute oral toxicity in mice. To be noted: mouse, in vivo, solution in sodium bicarbonate-saline.
The next series concerns anaesthetized rats. Kind of series: Cardiovascular effects in anaesthetized rats. The class given is in vivo, rat. Here is the method: Male Wistar rats weighing between 250-350 g were used. Anaesthesia was induced with 3-5% halothane in oxygen and maintained with a mixture of chloralose (60 mg/kg i.v.) and pentobarbitone (20 mg/kg i.v.). A femoral vein was cannulated for the administration of drugs and the ipsilateral femoral artery for measuring arterial blood pressure; heart rate was derived from the femoral pulse by a cardiotachometer. Body temperature was maintained at 38° C.
Five test rats were each given a series of increasing doses of compound (Ia) as a solution in 10%-saturated sodium bicarbonate (saturated sodium bicarbonate solution diluted 1:9). Sufficient time was allowed between doses for the variables to return either to the pre-dose level or to a steady state if full recovery was not attained. Measurements were made 2 mins. after dose or at maximum effect.
Control rats (3) were given a series of 0.2 ml. injections of the sodium bicarbonate vehicle (up to 15 injections) to assess any effect of sodium bicarbonate and of increasing extracellular fluid volume on blood pressure and heart rate.

Consider `O=Cc1c(O)cccc1OCCCCC(=O)O` [Example 1, 5-(2-formyl-3-hydroxyphenoxy)pentanoic acid], for which the “Mean p50” value is recorded as 25.5 mm. Hg in the series with haemoglobin [1] (0.3 mM); 21.5 mm. Hg in the series with haemoglobin [1] (1.0 mM); 9.0 mm. Hg in the series with haemoglobin [1] (3.0 mM); 8.2 mm. Hg with haemoglobin [2] (3.0 mM, rat blood in vitro, 30 mins, 37° C., control 44.5); 22.37 mm. Hg in the series on haemoglobin [3] (100 mg/kg i.v., vehicle 43.37); 10.25 mm. Hg with haemoglobin [3] (500 mg/kg p.o., vehicle 42.75). The “Mean p50” value with haemoglobin [4] (3.0 mM, homozygous sickle-cell blood, 37° C., minimum 45 mins, three patients, control 51) is given as 10 mm. Hg. The “displacement of the oxygen-dissociation curve” value in the series on haemoglobin [1] (whole normal human blood in vitro) is recorded as “dose-related left-displacement”; in the series on haemoglobin [2] (whole rat blood in vitro) it was “considerably left-displaced”; with haemoglobin [3] (whole rat blood in vivo) it was “considerable left-displacement”; with haemoglobin [4] (whole homozygous (SS genotype) human sickle-cell blood in vitro) it was “considerable left-displacement”. Besides, in series [5], the “proportion of sickled cells” value was “about 3%”. Besides, the LD50 in series [6] was about 1000 mg/kg. Moreover, in the series with anaesthetized rats (32-128 mg/kg i.v., anaesthetized rats), the “change in blood pressure” value is listed as “Significant dose-dependent falls in pressure”. Further, the “change in heart rate” value is “slight tachycardia” in the series on anaesthetized rats (after the 64 mg/kg dose, three rats, not statistically significant) and “no marked changes in heart rate” in the series on anaesthetized rats (anaesthetized rats, i.v.). Moreover, in the series with anaesthetized rats (anaesthetized rats, i.v.), the “time of blood pressure recovery after each dose” value was at most 15 min. Also, the “change in systolic, diastolic or mean blood pressures” value in the series on anaesthetized rats (up to 16 mg/kg i.v., anaesthetized rats) was “no appreciable change”.
